Activity calls are given as the source filed them. The rule behind the calls is not given here.
Key:
Mus musculus [1] = experiment: Toxicity in nude mouse xenografted with human EC109 cells assessed as skin ulceration at 10 mg/kg in presence of paclitaxel measured after 21 days; format: organism-based; conditions: in vivo, 504 h
Mus musculus [2] = experiment: Hepatotoxicity in nude mouse xenografted with human EC109 cells assessed as change in serum GGT level at 10 mg/kg in presence of paclitaxel measured after 21 days; format: toxicity, organism-based; conditions: in vivo, 504 h
ECa-109 cell line [3] = experiment: Cytotoxicity against human EC109 cells assessed as combination index at 30 uM in presence of 2.5 nM paclitaxel; format: functional
ECa-109 cell line [4] = experiment: Induction of apoptosis in human EC109 cells assessed as nuclear condensation at 15 uM after 24 hrs by Hochest 33258 staining based fluorescent microscopic analysis; format: functional, cell-based
ECa-109 cell line [5] = experiment: Cytotoxicity against human EC109 cells assessed as combination index at 15 uM in presence of 5 nM paclitaxel; format: functional
Mus musculus [6] = experiment: Hepatotoxicity in nude mouse xenografted with human EC109 cells assessed as change in serum ALP level at 10 mg/kg in presence of paclitaxel measured after 21 days; format: toxicity, organism-based; conditions: in vivo, 504 h
Mus musculus [7] = experiment: Toxicity in nude mouse xenografted with human EC109 cells assessed as body weight loss at 10 mg/kg in presence of paclitaxel measured after 21 days; format: organism-based; conditions: in vivo, 504 h
ECa-109 cell line [8] = experiment: Cytotoxicity against human EC109 cells assessed as combination index at 5 uM in presence of 2.5 nM paclitaxel; format: functional
ECa-109 cell line [9] = experiment: Antitumor activity against human EC109 cells xenografted in nude mouse assessed as reduction in tumor volume at 10 mg/kg in presence of 5 mg/kg paclitaxel measured after 21 days; format: functional, organism-based
ECa-109 cell line [10] = experiment: Cytotoxicity against human EC109 cells assessed as combination index at 15 uM in presence of 2.5 nM paclitaxel; format: functional
Mus musculus [11] = experiment: Hepatotoxicity in nude mouse xenografted with human EC109 cells assessed as change in serum albumin level at 10 mg/kg in presence of paclitaxel measured after 21 days; format: toxicity, organism-based; conditions: in vivo, 504 h
ECa-109 cell line [12] = experiment: Antitumor activity against human EC109 cells xenografted in nude mouse assessed as induction of necrosis at 10 mg/kg measured after 21 days by H and E staining based assay; format: functional, organism-based
ECa-109 cell line [13] = experiment: Induction of apoptosis in human EC109 cells assessed as decrease in pro-caspase 9 expression at 15 uM in presence of 5 nM paclitaxel by Western blot method; format: functional, cell-based
ECa-109 cell line [14] = experiment: Cytotoxicity against human EC109 cells assessed as combination index at 10 uM in presence of 2.5 nM paclitaxel; format: functional
ECa-109 cell line [15] = experiment: Induction of apoptosis in human EC109 cells assessed as viable cells at 15 uM after 24 hrs in presence of paclitaxel by Annexin V-FITC/propidium iodide staining based flow cytometry (reference value: 96.1%); format: functional; conditions: ECa-109, 24 h, read-out: Activity
Mus musculus [16] = experiment: Toxicity in nude mouse xenografted with human EC109 cells assessed as skin ulceration at 10 mg/kg measured after 21 days; format: organism-based; conditions: in vivo, 504 h
ECa-109 cell line [17] = experiment: Induction of apoptosis in human EC109 cells assessed as decrease in Bcl-XL level at 15 uM in presence of 5 nM paclitaxel by Western blot method; format: functional, cell-based
ECa-109 cell line [18] = experiment: Antitumor activity against human EC109 cells xenografted in nude mouse assessed as increase in apoptotic cells at 10 mg/kg in presence of paclitaxel measured after 21 days by TUNEL assay; format: functional, organism-based
ECa-109 cell line [19] = experiment: Induction of apoptosis in human EC109 cells assessed as late apoptotic cells at 15 uM after 24 hrs in presence of paclitaxel by Annexin V-FITC/propidium iodide staining based flow cytometry (reference value: 1%); format: functional
ECa-109 cell line [20] = experiment: Antitumor activity against human EC109 cells xenografted in nude mouse assessed as decrease in tumor weight at 10 mg/kg in presence of 5 mg/kg paclitaxel measured after 21 days; format: functional, organism-based
Mus musculus [21] = experiment: Toxicity in nude mouse xenografted with human EC109 cells assessed as pathological changes at 10 mg/kg in presence of paclitaxel measured after 21 days; format: organism-based; conditions: in vivo, 504 h
Mus musculus [22] = experiment: Toxicity in nude mouse xenografted with human EC109 cells assessed as effect on lungs at 10 mg/kg in presence of paclitaxel measured after 21 days by histopathological analysis; format: organism-based; conditions: in vivo, 504 h
ECa-109 cell line [23] = experiment: Induction of apoptosis in human EC109 cells assessed as viable cells at 15 uM after 24 hrs by Annexin V-FITC/propidium iodide staining based flow cytometry (reference value: 96.1%); format: functional; conditions: ECa-109, 24 h, read-out: Activity
ECa-109 cell line [24] = experiment: Cytotoxicity against human EC109 cells assessed as combination index at 30 uM in presence of 5 nM paclitaxel; format: functional
ECa-109 cell line [25] = experiment: Cytotoxicity against human EC109 cells assessed as combination index at 30 uM in presence of 10 nM paclitaxel; format: functional
ECa-109 cell line [26] = experiment: Induction of apoptosis in human EC109 cells assessed as late apoptotic cells at 15 uM after 24 hrs by Annexin V-FITC/propidium iodide staining based flow cytometry (reference value: 1%); format: functional
ECa-109 cell line [27] = experiment: Induction of apoptosis in human EC109 cells assessed as nuclear shrinkage at 15 uM after 24 hrs by Hochest 33258 staining based fluorescent microscopic analysis; format: functional, cell-based
Mus musculus [28] = experiment: Toxicity in nude mouse xenografted with human EC109 cells assessed as body weight loss at 10 mg/kg measured after 21 days; format: organism-based; conditions: in vivo, 504 h
Mus musculus [29] = experiment: Hepatotoxicity in nude mouse xenografted with human EC109 cells assessed as change in serum ALT level at 10 mg/kg in presence of paclitaxel measured after 21 days; format: toxicity, organism-based; conditions: in vivo, 504 h

## C=C1C(=O)[C@@]23[C@@H]4OC(c5ccc(Cl)cc5)O[C@@]25OC[C@@]2([C@H]([C@@H]5O)C(C)(C)CC[C@@H]2O)[C@@H]3CC[C@@H]14 (some centres undefined)
Mus musculus [1]
  Activity: Non-Toxic
Mus musculus [2]
  Activity: Non-Toxic
ECa-109 cell line [3]
  CI: 1.15
ECa-109 cell line [4]
  Activity: Active
ECa-109 cell line [5]
  CI: 0.37
Mus musculus [6]
  Activity: Non-Toxic
Mus musculus [7]
  Activity: Non-Toxic
ECa-109 cell line [8]
  CI: 1.79
ECa-109 cell line [9]
  Activity: Active
ECa-109 cell line [10]
  CI: 0.6
Mus musculus [11]
  Activity: Non-Toxic
ECa-109 cell line [12]
  Activity: Active
ECa-109 cell line [13]
  Activity: Active
ECa-109 cell line [14]
  CI: 0.56
ECa-109 cell line [15]
  viability at 15 µM: 52.7%
Mus musculus [16]
  Activity: Non-Toxic
ECa-109 cell line [17]
  Activity: Active
ECa-109 cell line [18]
  Activity: Active
ECa-109 cell line [19]
  Activity: 9.7%
ECa-109 cell line [20]
  Activity: Active
Mus musculus [21]
  Activity: Non-Toxic
Mus musculus [22]
  Activity: Non-Toxic
ECa-109 cell line [23]
  viability at 15 µM: 73.1%
ECa-109 cell line [24]
  CI: 0.93
ECa-109 cell line [25]
  CI: 1.12
ECa-109 cell line [26]
  Activity: 5.3%
ECa-109 cell line [27]
  Activity: Active
Mus musculus [28]
  Activity: Non-Toxic
Mus musculus [29]
  Activity: Non-Toxic

From ChEMBL document CHEMBL4014287, “Jesridonin in combination with paclitaxel demonstrates synergistic anti-tumor activity in human esophageal carcinoma cells” (Bioorg Med Chem Lett, 2017)
